In ChEMBL document CHEMBL1145711, “Dolabelides C and D, Cytotoxic Macrolides Isolated from the Sea Hare Dolabella auricularia” (J Nat Prod, 1997):
Values after ≈ are worked out from the molar mass of the structure shown.

Assay: Cytotoxicity against human HeLaS3 cells
Format: functional, cell-based
Settings: HeLa S3

Compound | IC50
CCC[C@H](C/C(C)=C/[C@H]1OC(=O)[C@@H](C)[C@@H](O)[C@H](C)CC[C@H](OC(C)=O)C[C@@H](OC(C)=O)C[C@@H](OC(C)=O)CC/C(C)=C/CCC[C@@H](O)C[C@H](O)[C@@H]1C)OC(C)=O [DOLABELIDE C] | 1.9 mg/L (≈ 2.38 µM)
CCC[C@H](C/C(C)=C/[C@H]1OC(=O)[C@@H](C)[C@@H](O)[C@H](C)CC[C@H](O)C[C@@H](OC(C)=O)C[C@@H](O)CC/C(C)=C/CCC[C@@H](O)C[C@H](O)[C@@H]1C)OC(C)=O [DOLABELIDE D] | 1.5 mg/L (≈ 2.1 µM)
